Measurements published in patent publication US11059818B2, “Triazolopyridine inhibitors of myeloperoxidase” (BRISTOL-MYERS SQUIBB COMPANY, priority 2016, dated 2021).

Key:
[1] = molecular target: T1, myeloperoxidase (Homo sapiens (Human), UniProt P05164); assay: MPO Peroxidation Assay (Amplex Red Assay); assay type: biochemical; conditions: potency range class
Protocol: MPO Peroxidation Assay (Amplex Red Assay)
MPO peroxidation activity was measured in 100 mM KPi (pH 7.4) by utilizing the non-fluorescent reagent Amplex Red (Invitrogen Cat. #A12222) which can be oxidized to the highly fluorescent resorufin. Amplex Red is oxidized by the peroxidase action of MPO to resorufin. Reactions were carried out in 50 μL total volume by adding a 25 μL mixture of 200 pM myeloperoxidase and 40 nM H2O2(Sigma #349887) to 100 nL inhibitor in 100% DMSO in a 384 well Perkin Elmer Optiplate. Enzyme and compound were preincubated for ten minutes at rt.
After the ten minute preincubation, 25 μL of an Amplex Red mixture containing 200 μM Amplex Red and 10 mM H2O2 was added to the plate. Kinetic determinations were carried out immediately on a Perkin Elmer Envision (15 minute kinetic read, Ex: 535 nm, Em: 590 nm).
IC50 values were calculated by determining the slope of the linear portion of the kinetic trace (180-540 secs), and using that calculated slope to determine % inhibition occurring at each concentration of inhibitor using the following equation:
(§1) [formula] where A=minimal Y value (activity level of inhibited sample), B=maximal Y value (activity level of uninhibited sample), C=Log IC50, D=Hill Slope, x=concentration of inhibitor. MPO Chlorination Assay (APF Assay)

[2] = molecular target: T1, myeloperoxidase; assay: MPO Chlorination Assay (APF Assay); assay type: biochemical; conditions: potency range class
Protocol: as §1
MPO chlorination activity was measured in 100 mM KPi (pH 7.4) by utilizing the non-fluorescent reagent Aminophenyl fluorescein (APF, Invitrogen Cat. #A36003). APF is cleaved by (—OCl) to yield the fluorescent compound fluorescein. Reactions were carried out in 50 μL total volume by adding a 25 μL mixture of 200 pM myeloperoxidase and 120 mM NaCl to 100 nL inhibitor in 100% DMSO in a 384 well, non-binding surface clear bottom plate (Corning #3655). Enzyme, inhibitor, and chloride were preincubated for ten minutes at rt.
After the ten minute preincubation, 25 μL of an APF mixture containing […], 120 mM NaCl and 10 μM H2O2 was added to the plate using the internal dispensing system of a Hammatsu FDSS 6000. Kinetic determinations were carried out immediately on the FDSS 6000 (3 minute kinetic read, 1 read every second, ex: 485 nm, em: 535 nm). IC50 values for inhibitors were calculated by taking the slope of the linear portion of the kinetic measurement (20 seconds to ˜80-120 secs). […]
[formula] where A=minimal Y value (activity level of inhibited sample), B=maximal Y value (activity level of uninhibited sample), C=Log IC50, D=Hill Slope, x=concentration of inhibitor.

T1 sequence (P05164 49-745): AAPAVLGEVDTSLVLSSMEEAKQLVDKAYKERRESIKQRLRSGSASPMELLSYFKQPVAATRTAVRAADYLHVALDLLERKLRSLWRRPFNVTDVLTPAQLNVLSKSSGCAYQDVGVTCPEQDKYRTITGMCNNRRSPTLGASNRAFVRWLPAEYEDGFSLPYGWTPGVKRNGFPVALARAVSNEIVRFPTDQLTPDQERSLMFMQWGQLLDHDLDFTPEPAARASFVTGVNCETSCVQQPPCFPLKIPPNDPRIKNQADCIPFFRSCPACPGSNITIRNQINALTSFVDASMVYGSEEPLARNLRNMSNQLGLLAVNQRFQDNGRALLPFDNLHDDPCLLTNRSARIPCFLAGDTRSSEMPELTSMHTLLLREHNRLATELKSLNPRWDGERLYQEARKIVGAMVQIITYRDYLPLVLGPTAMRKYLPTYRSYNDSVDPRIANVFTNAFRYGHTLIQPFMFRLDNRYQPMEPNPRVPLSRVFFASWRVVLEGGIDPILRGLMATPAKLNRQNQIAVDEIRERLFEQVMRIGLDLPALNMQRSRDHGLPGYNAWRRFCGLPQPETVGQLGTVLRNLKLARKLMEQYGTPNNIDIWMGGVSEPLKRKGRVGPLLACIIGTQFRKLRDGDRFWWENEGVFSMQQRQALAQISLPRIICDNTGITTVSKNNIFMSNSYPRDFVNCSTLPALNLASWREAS

Q: How did the IC50 [1] turn out when `Nc1cc(C(CCCc2ccccc2)c2cnn(Cc3cccnc3)c2)c2nn[nH]c2n1` (centres unmarked) [Example 12, 7-{4-Phenyl-1-[1-(pyridin-3-ylmethyl)-1H-pyrazol-4-yl]butyl}-3H-[1,2,3]triazolo[4,5-b]pyridin-5-amine] was run?
A: Its IC50 is 101 to 999 nM.

Q: Which IC50 [1] does the source give for `Nc1cc(C(CCNCc2ccccc2)c2cnn(Cc3cccc(O)c3)c2)c2nn[nH]c2n1` (centres unmarked) [Example 46] here?
A: The IC50 was 101 to 999 nM.

Q: And the IC50 [2]?
A: The IC50 was 101 to 999 nM.

Q: Which IC50 [1] does the source give for `Nc1cc(C(CCNC23CCC(c4ccccc4)(CC2)[C@H](O)C3)c2cnn(Cc3cccc(O)c3)c2)c2nn[nH]c2n1` (some centres unmarked) [Example 51] here?
A: The IC50 was 1 to 100 nM.

Q: What about the IC50 [2] of the same compound?
A: Its IC50 is 1 to 100 nM.

Q: For `CC(c1cnn(Cc2ccc3c(c2)CCNC3)c1)c1cc(N)nc2[nH]nnc12` (centres unmarked) [Example 3, 7-{1-[1-(1,2,3,4-tetrahydroisoquinolin-6-ylmethyl)-1H-pyrazol-4-yl]ethyl}-3H-[1,2,3]triazolo[4,5-b]pyridin-5-amine], which IC50 [1] is on record?
A: The IC50 was 101 to 999 nM.

Q: What about the IC50 [2] of the same compound?
A: Its IC50 is 101 to 999 nM.

Q: With `Nc1cc(C(CCOCc2ccccc2)c2cnn(Cc3ccc4c(c3)CCNC4)c2)c2nn[nH]c2n1` (centres unmarked) [Example 4, 7-(3-(benzyloxy)-1-(1-((1,2,3,4-tetrahydroisoquinolin-6-yl)methyl)-1H-pyrazol-4-yl)propyl)-3H-[1,2,3]triazolo[4,5-b]pyridin-5-amine] as the compound, how does the IC50 [1] read?
A: The IC50 was 1000 to 10000 nM.

Q: What about the IC50 [2] of the same compound?
A: The IC50 was 101 to 999 nM.

Q: For `Nc1cc(C(CCCC2NCCc3ccccc32)c2cnn(Cc3ccccc3)c2)c2nn[nH]c2n1` (centres unmarked) [Example 14, 7-[1-(1-Benzyl-1H-pyrazol-4-yl)-4-(1,2,3,4-tetrahydroisoquinolin-1-yl)butyl]-3H-[1,2,3]triazolo[4,5-b]pyridin-5-amine], which IC50 [1] is on record?
A: The IC50 was 101 to 999 nM.

Q: And the IC50 [2]?
A: The IC50 was 1 to 100 nM.

Q: Which results are given for `Nc1cc(C(CCN[C@H]2C[C@H](Cc3ccccc3)[C@@H](O)C2)c2cnn(CCc3cccc(O)c3)c2)c2nn[nH]c2n1` (some centres unmarked) [Example 54]?
A: IC50 [1]: 1000 to 10000 nM; IC50 [2]: 101 to 999 nM

Q: For `Nc1cc(C(CCN[C@H]2CC[C@H](c3ccccc3)CC2)c2cnn(CCC(F)(F)F)c2)c2nn[nH]c2n1` (stereo partly drawn) [Example 30, 7-(3-{[trans-4-Phenylcyclohexyl]amino}-1-[1-(3,3,3-trifluoropropyl)-1H-pyrazol-4-yl]propyl)-3H-[1,2,3]triazolo[4,5-b]pyridin-5-amine], which IC50 [1] is on record?
A: Its IC50 is 101 to 999 nM.

Q: What about the IC50 [2] of the same compound?
A: Its IC50 is 1 to 100 nM.

Q: Which IC50 [1] does the source give for `Nc1cc(C(CCN[C@H]2CC[C@H](c3ccccc3)CC2)c2cncc(F)c2)c2nn[nH]c2n1` (some centres unmarked) [Example 44] here?
A: Its IC50 is 1000 to 10000 nM.

Q: What about the IC50 [2] of the same compound?
A: The IC50 was 101 to 999 nM.

Q: What does the source list for `Nc1cc(C(CCOc2ccccc2)c2cnn(Cc3ccc4c(c3)CCNC4)c2)c2nn[nH]c2n1` (centres unmarked) [Example 11, 7-{3-Phenoxy-1-[1-(1,2,3,4-tetrahydroisoquinolin-6-ylmethyl)-1H-pyrazol-4-yl]propyl}-3H-[1,2,3]triazolo[4,5-b]pyridin-5-amine]?
A: IC50 [1]: 101 to 999 nM; IC50 [2]: 101 to 999 nM

Q: What does the source list for `Nc1cc(C(CCN[C@H]2CC[C@H](c3ccccc3)CC2)c2cnn(C3CCC(F)(F)C3)c2)c2nn[nH]c2n1` (relative stereo) [Example 27, 7-{1-[1-(3,3-Difluorocyclopentyl)-1H-pyrazol-4-yl]-3-{[trans-4-phenylcyclohexyl]amino}propyl}-3H-[1,2,3]triazolo[4,5-b]pyridin-5-amine]?
A: IC50 [1]: 101 to 999 nM; IC50 [2]: 1 to 100 nM

Q: Which results are given for `Nc1cc(C(CCN[C@H]2CC[C@H](c3ccccc3)CC2)c2ccc(F)nc2)c2nn[nH]c2n1` (some centres unmarked) [Example 45]?
A: IC50 [1]: 101 to 999 nM; IC50 [2]: 101 to 999 nM

Q: Which results are given for `Nc1cc(C(CCO)c2cnn(Cc3cccc(OC4CCC(N)C4)c3)c2)c2nn[nH]c2n1` (centres unmarked) [Example 55]?
A: IC50 [1]: 101 to 999 nM; IC50 [2]: 101 to 999 nM

Q: What does the source list for `Nc1cc(C(CCN[C@H]2CC[C@H](c3ccccc3)CC2)c2cnn(Cc3cccc(C(F)(F)F)c3)c2)c2nn[nH]c2n1` (stereo partly drawn) [Example 31, 7-(3-{[trans-4-Phenylcyclohexyl]amino}-1-(1-{[3-(trifluoromethyl)phenyl]methyl}-1H-pyrazol-4-yl)propyl)-3H-[1,2,3]triazolo[4,5-b]pyridin-5-amine]?
A: IC50 [1]: 101 to 999 nM; IC50 [2]: 1 to 100 nM

Q: Which IC50 [1] does the source give for `Nc1cc(C(CCNCc2cccc(O)c2)c2cnn(Cc3cccc(O)c3)c2)c2nn[nH]c2n1` (centres unmarked) [Example 49] here?
A: Its IC50 is 1000 to 10000 nM.

Q: What about the IC50 [2] of the same compound?
A: The IC50 was 101 to 999 nM.
